Here are results for 10 molecules from patent US12258370B2, “Betulastatin compounds” (Arizona Board of Regents on behalf of Arizona State …, priority 2017, dated 2025).

Common to all, as to assay type: cell-based
One experiment concerns SF-268 (CNS). Kind of experiment: Sulforhodamine B human cancer cell growth inhibition, SF-268. The settings on record: SF-268 CNS cell line, compounds in DMSO, 48 h; for IC50: Homo sapiens, read-out: Gl50 Growth Inhibition, SF-268. The protocol:
(§1) Cancer Cell Line Procedures. Inhibition of human cancer cell growth was assessed using the standard sulforhodamine B assay of the U.S. National Cancer Institute, as previously described.^15 To begin, cells in a 5% fetal bovine serum/RPMI1640 medium were inoculated in 96-well plates and incubated for 24 h. Next, serial dilutions of the compounds were added. After 48 h, the plates were fixed with trichloroacetic acid, stained with sulforhodamine B, and read with an automated microplate reader.

In a further experiment the test system is DU-145 (prostate). Kind of experiment: Sulforhodamine B human cancer cell growth inhibition, DU-145. The settings on record: DU-145 prostate cell line, compounds in DMSO, 48 h; for IC50: Homo sapiens, read-out: Gl50 Growth Inhibition, DU-145. The method, then: as §1
A further experiment deals with BXPC-3 (pancreas). Kind of experiment: Sulforhodamine B human cancer cell growth inhibition, BXPC-3. Particulars: BXPC-3 pancreas cell line, compounds in DMSO, 48 h; for IC50: Homo sapiens, read-out: Gl50 Growth Inhibition, XPC-3. The protocol: as §1
A further experiment concerns Human Cancer Cell Lines. Kind of experiment: Human cancer cell line panel, overall comparison of growth inhibition. The settings on record: general statement on Table 1; comparator not stated. The protocol:
as §1, with “reader. A growth inhibition of 50% (GI50 or the drug concentration causing a 50% reduction in the net protein increase) was calculated from optical density data with Immunosoft® software.” for “reader.”

The test system of another experiment is KM20L2 (colon). Kind of experiment: Sulforhodamine B human cancer cell growth inhibition, KM20L2. The settings on record: compounds in DMSO, 48 h; for IC50: Homo sapiens, KM-20L2, KM20L2 colon cell line, read-out: Gl50 Growth Inhibition, KM20L2; for Gl50 Growth Inhibition, KM20L2: KM20L2 colon cell line. The protocol:
as §1

A further experiment relates to MCF-7 (breast). Kind of experiment: Sulforhodamine B human cancer cell growth inhibition, MCF-7. The settings on record: compounds in DMSO, 48 h; for IC50: Homo sapiens, MCF7, MCF-7 breast cell line, read-out: Gl50 Growth Inhibition, MCF-7; for Gl50 Growth Inhibition, MCF-7: MCF-7 breast cell line. The protocol: as §1
Another experiment concerns NCI-H460 (lung). Nature of the experiment: Sulforhodamine B human cancer cell growth inhibition, NCI-H460. The settings on record: NCI-H460 lung cell line, compounds in DMSO, 48 h; for IC50: Homo sapiens, read-out: Gl50 Growth Inhibition, NCI-H460. The method, then:
as §1

In brackets after ≈: the same amount, converted by molar mass.

Consider `CC[C@H](C)C([C@@H](CC(=O)N1CCCC1[C@H](OC)[C@@H](C)C(=O)NCCN1C(=O)[C@]23CCC(C)(C)C1C2[C@H]1CCC2[C@@]4(C)CC[C@H](O)C(C)(C)C4CC[C@@]2(C)[C@]1(C)CC3)OC)N(C)C(=O)[C@@H](NC(=O)[C@H](C(C)C)N(C)C)C(C)C` (stereo partly drawn) [Compound 18b, 28-Amido-allobetulin-28-N-1′-ethyldiamine-N-2′-Dap-Dil-Val-Dov], for which the IC50 with SF-268 (CNS) was 0.09 µg/mL (≈ 0.0834 µM); in the experiment with DU-145 (prostate), 0.06 µg/mL (≈ 0.0556 µM); with BXPC-3 (pancreas), 0.31 µg/mL (≈ 0.287 µM); in the experiment on KM20L2 (colon) it was 0.22 µg/mL (≈ 0.204 µM); in the experiment on MCF-7 (breast) it was 0.21 µg/mL (≈ 0.195 µM); in the experiment with NCI-H460 (lung), 0.6 µg/mL (≈ 0.556 µM). The “fold increase in cancer cell growth inhibition” value in the experiment on Human Cancer Cell Lines is given as approximately 10 fold.
As to `C=C(CNC(=O)[C@H](C)[C@@H](OC)C1CCCN1C(=O)C[C@@H](OC)[C@H]([C@@H](C)CC)N(C)C(=O)[C@@H](NC(=O)C(C(C)C)N(C)C)C(C)C)[C@@H]1CC[C@]2(CO)CC[C@]3(C)C(CCC4[C@@]5(C)CC[C@H](O)C(C)(C)[C@@H]5CC[C@]43C)[C@@H]12` (stereo partly drawn) [Compound 16b, 30-N-(Dap-Dil-Val-Dov)-betulin], the IC50 was determined as 0.04 µg/mL (≈ 0.0385 µM) in the experiment on SF-268 (CNS); 0.04 µg/mL (≈ 0.0385 µM) in the experiment on DU-145 (prostate); 0.4 µg/mL (≈ 0.385 µM) with BXPC-3 (pancreas); 0.09 µg/mL (≈ 0.0867 µM) with KM20L2 (colon); 0.08 µg/mL (≈ 0.077 µM) with MCF-7 (breast); 0.5 µg/mL (≈ 0.481 µM) in the experiment with NCI-H460 (lung). Moreover, the “fold increase in cancer cell growth inhibition” value in the experiment with Human Cancer Cell Lines is on record as “hundred-fold”.
On to `C=C(C)[C@@H]1CC[C@]2(COC(C)=O)CC[C@]3(C)[C@H](CC[C@@H]4[C@@]5(C)CCC(N)C(C)(C)[C@@H]5CC[C@]43C)[C@@H]12` (single isomer, unassigned) [Compound 9b, 3-α/β-Amino-28-O-acetyl-betulin], for which the “Gl50 Growth Inhibition, SF-268” value in the experiment on SF-268 (CNS) turned out to be 0.21 µg/mL. Moreover, in the experiment on DU-145 (prostate), the “Gl50 Growth Inhibition, DU-145” value turned out to be 0.13 µg/mL. Moreover, the “Gl50 Growth Inhibition, XPC-3” value in the experiment on BXPC-3 (pancreas) turned out to be 1.1 µg/mL. Besides, the “fold increase in cancer cell growth inhibition” value in the experiment on Human Cancer Cell Lines is listed as approximately 10 fold. Also, the “Gl50 Growth Inhibition, KM20L2” value in the experiment on KM20L2 (colon) was determined as 0.35 µg/mL. Also, the “Gl50 Growth Inhibition, MCF-7” value in the experiment on MCF-7 (breast) is 0.20 µg/mL. The “Gl50 Growth Inhibition, NCI-H460” value in the experiment on NCI-H460 (lung) is 0.21 µg/mL.
Regarding `C=C(C)[C@@H]1CC[C@]2(CNC(=O)[C@H](C)[C@@H](OC)C3CCCN3C(=O)C[C@@H](OC)[C@H]([C@@H](C)CC)N(C)C(=O)C(NC(=O)[C@H](C(C)C)N(C)C)C(C)C)CC[C@]3(C)C(CCC4[C@@]5(C)CC[C@H](O)C(C)(C)C5CC[C@]43C)C12` (stereo partly drawn) [Compound 7b, Betulin-28-amino-N-(Dap-Dil-Val-Dov)], the IC50 in the experiment on SF-268 (CNS) was 0.3 µg/mL (≈ 0.293 µM); in the experiment on DU-145 (prostate), 0.4 µg/mL (≈ 0.391 µM); in the experiment with BXPC-3 (pancreas), 0.6 µg/mL (≈ 0.587 µM); in the experiment with KM20L2 (colon), 0.31 µg/mL (≈ 0.303 µM); in the experiment on MCF-7 (breast), 0.4 µg/mL (≈ 0.391 µM); in the experiment on NCI-H460 (lung), more than 1 µg/mL. In addition, in the experiment with Human Cancer Cell Lines, the “fold increase in cancer cell growth inhibition” value was approximately 10 fold.
On to `C=C(C)[C@@H]1CC[C@]2(COC(C)=O)CC[C@]3(C)C(CCC4[C@@]5(C)CC[C@H](NC(=O)[C@H](C)[C@@H](OC)C6CCCN6C(=O)OC(C)(C)C)C(C)(C)[C@@H]5CC[C@]43C)[C@@H]12` (stereo partly drawn) [Compound 10, 3-β-Amino-N-(Boc-Dap)-28-O-acetyl-betulin], for which the IC50 with SF-268 (CNS), in the experiment with DU-145 (prostate), in the experiment on BXPC-3 (pancreas), with KM20L2 (colon), in the experiment on MCF-7 (breast) and in the experiment with NCI-H460 (lung) was more than 10 µg/mL throughout.
Take `C=C(CN)[C@@H]1CC[C@]2(CO)CC[C@]3(C)[C@H](CC[C@@H]4[C@@]5(C)CC[C@H](O)C(C)(C)[C@@H]5CC[C@]43C)[C@@H]12` [Compound 14, 30-Amino-betulin]: the “Gl50 Growth Inhibition, SF-268” value in the experiment on SF-268 (CNS) was determined as 4.2 µg/mL. In the experiment on DU-145 (prostate), the “Gl50 Growth Inhibition, DU-145” value came to 2.1 µg/mL. In the experiment with BXPC-3 (pancreas), the “Gl50 Growth Inhibition, XPC-3” value turned out to be 3.0 µg/mL. Moreover, the “Gl50 Growth Inhibition, KM20L2” value with KM20L2 (colon) came out at 2.9 µg/mL. Moreover, in the experiment with MCF-7 (breast), the “Gl50 Growth Inhibition, MCF-7” value was 3.1 µg/mL. Besides, the “Gl50 Growth Inhibition, NCI-H460” value in the experiment on NCI-H460 (lung) stood at 4.0 µg/mL.
As to `C=C(C)[C@@H]1CC[C@]2(CO)CC[C@]3(C)[C@H](CC[C@@H]4[C@@]5(C)CC[C@H](O)C(C)(C)[C@@H]5CC[C@]43C)[C@@H]12` [Betulin, betulin, reference compound], the IC50 in the experiment with SF-268 (CNS) was more than 10 µg/mL; in the experiment on DU-145 (prostate), more than 10 µg/mL; in the experiment on BXPC-3 (pancreas), 9.3 µg/mL (≈ 21 µM); in the experiment on KM20L2 (colon), more than 10 µg/mL; in the experiment with MCF-7 (breast), more than 10 µg/mL; in the experiment on NCI-H460 (lung), 7.4 µg/mL (≈ 16.7 µM).
On to “3-O-Acetyl-28-amido-allobetulin-28-N-1′-ethyldiamine-N-2′-Dap-Dil-Val-Dov [Compound 18a]”, for which the “Gl50 Growth Inhibition, SF-268” value in the experiment with SF-268 (CNS) was 1.3 µg/mL. Further, the “Gl50 Growth Inhibition, DU-145” value with DU-145 (prostate) came out at 0.39 µg/mL. Moreover, the “Gl50 Growth Inhibition, XPC-3” value in the experiment with BXPC-3 (pancreas) was 3.8 µg/mL. Moreover, the “Gl50 Growth Inhibition, KM20L2” value in the experiment on KM20L2 (colon) came out at 3.1 µg/mL. In the experiment on MCF-7 (breast), the “Gl50 Growth Inhibition, MCF-7” value was determined as 3.6 µg/mL. In addition, in the experiment with NCI-H460 (lung), the “Gl50 Growth Inhibition, NCI-H460” value came out at 5.1 µg/mL.
`C=C(CN=[N+]=[N-])[C@@H]1CC[C@]2(COC(C)=O)CC[C@]3(C)C(CCC4[C@@]5(C)CC[C@H](OC(C)=O)C(C)(C)[C@@H]5CC[C@]43C)[C@@H]12` (some centres unmarked) [Compound 13, 3,28-Di-O-acetyl-30-azido-betulin]: the IC50 with SF-268 (CNS), in the experiment with DU-145 (prostate), in the experiment with BXPC-3 (pancreas), in the experiment with KM20L2 (colon), with MCF-7 (breast) and with NCI-H460 (lung) was more than 10 µg/mL in each case.
Regarding “3β-Amino-N-(Dap-Dil-Val-Dov)-betulin [Compound 11b]”, the “Gl50 Growth Inhibition, SF-268” value with SF-268 (CNS) was determined as 0.40 µg/mL. For the same molecule, the “Gl50 Growth Inhibition, DU-145” value in the experiment with DU-145 (prostate) is 0.40 µg/mL. Further, the “Gl50 Growth Inhibition, XPC-3” value in the experiment with BXPC-3 (pancreas) amounted to 2.0 µg/mL. In addition, the “fold increase in cancer cell growth inhibition” value in the experiment with Human Cancer Cell Lines is approximately 10 fold. Also, the “Gl50 Growth Inhibition, KM20L2” value with KM20L2 (colon) turned out to be 0.85 µg/mL. Further, the “Gl50 Growth Inhibition, MCF-7” value in the experiment with MCF-7 (breast) turned out to be 0.70 µg/mL. Moreover, in the experiment with NCI-H460 (lung), the “Gl50 Growth Inhibition, NCI-H460” value turned out to be 2.1 µg/mL.
